Laboratory results taken from patent US12252423B2, “Biodegradation of fluorochemicals” (The Trustees of Princeton University, priority 2018, dated 2025).
Entries after “also recorded” stand apart in the source; their conditions may differ.

Tested on: pure and enrichment cultures
Assay: Toxicity experiments: effect of PFAS on biomass over a 14-day incubation
Format: cell-based, Acidimicrobiaceae sp. A6 / Terrimonas sp. A8
Settings: for toxicity / effects on the overall bacterial numbers: 1 ppb, 10 ppb, 100 ppb and 1 ppm, 14 days incubation, pure and enrichment cultures; for biomass growth: 1 ppm, pure culture incubations, 14 days
Protocol: Toxicity experiments were conducted for both pure and enrichment cultures with selected PFAS Compounds. The concentrations to test were 1 ppb, 10 ppb, 100 ppb and 1 ppm. During 14 days incubation, no toxicity of Heptafluorobutyric acid (HFBA), Perfluorooctanoic acid (PFOA) was evidenced by cultures with these concentrations.
All Incubations were conducted in 20-ml serum vials with a pure strain A6 (Acidimicrobiaceae sp.)/A8 (Terrimonas sp.) or an enrichment culture, which contained 40.1-48.5% of Acidimicrobiaceae sp. A6, and in the anoxic inorganic Fe(III)-NH4^+ enrichment medium. The composition of the inorganic Fe(III)-NH4^+ enrichment medium (pH 4.5-5.0) consisted of 504 mg/L 2-line ferrihydrite [Fe2O3·0.5H2O], 177 mg/l NH4Cl, 77.9 mg/L (NH4)2SO4, 19.8 mg/L NaHCO3, 71.0 mg/L KHCO3, 9.00 mg/L KH2PO4, 100 mg/L MgSO4·7H2O, and 60.0 mg/L CaCl2·2H2O, in addition to 1 ml/L of a trace element solution, and 1 ml/L of a vitamin solution (ATCC® MD-VS™). An electron shuttling compound, 9,10-Anthraquinone-2,7-disulphonic acid (AQDS), was added to the pure strain A6 with a final concentration as 0.05 mg/L. To achieve strictly anoxic conditions, the headspace of each incubation vial was vacuumed until no bubble formation was observed and then flushed with a N2/CO2 (80:20) gas mixture, which was repeated 3 times. Then, for the PFAS degradation experiment, an equal volume of either HFBA, PFOA and PFBS was added to each group of vials, to yield final concentrations to 100 ppb. In the control group, autoclave control, without PFASs and without addition of NH4^+ were prepared. All These vials were placed on a shaker (100 rpm) in an anaerobic glove box for 14-day incubations at ambient temperature. Duplicate samples were collected destructively every week for Fe(II), NH4^+, and HFBA/PFOA/PFBS analyses.
Toxicity experiments, in terms of how each of these PFAS affects the biomass over a 14-day incubation, were conducted for both pure and enrichment cultures. The concentrations tested were 1 ppb, 10 ppb, 100 ppb and 1 ppm. During 14 days of incubation, no effects by Heptafluorobutyric acid (HFBA) and Perfluorooctanoic acid (PFOA) on the overall bacterial numbers were detected for these concentrations. However, the biomass growth was inhibited when the concentration of 2,2,2-Trifluoroethyl Nonafluorobutanesulfonate was 1 ppm in the incubation with the pure culture.

Q: O=C(O)C(F)(F)C(F)(F)C(F)(F)F [HFBA, Heptafluorobutyric acid] was tested. Which “toxicity / effects on the overall bacterial numbers” value did it give?
A: no toxicity; also recorded: no effects

Q: For O=S(=O)(OCC(F)(F)F)C(F)(F)C(F)(F)C(F)(F)C(F)(F)F [PFBS, 2,2,2-Trifluoroethyl Nonafluorobutanesulfonate], which biomass growth is on record?
A: slightly inhibited

Q: What about the biomass growth (listed as 2,2,2-Trifluoroethyl Nonafluorobutanesulfonate) of the same molecule?
A: inhibited

Q: O=C(O)C(F)(F)C(F)(F)C(F)(F)C(F)(F)C(F)(F)C(F)(F)C(F)(F)F [PFOA, Perfluorooctanoic acid] was tested. Which “toxicity / effects on the overall bacterial numbers” value did it give?
A: no toxicity; also recorded: no effects
